Reference: US20070232698A1, “Slimming Skin External Preparation and Cosmetic Containing the Same” (priority 2004, published 2007)
Where two headings read alike, the source gives them in different places.

Tests used:
Mouse 3T3 adipocytes = test: Measurement of fat metabolic activity for mouse 3T3 adipocytes (free glycerol in culture medium); type: cell-based; conditions: 250 μM test substance, medium recovered after 24 hours; control (none) = 100
Description: The five carnitine and carnitine derivatives 1) to 5) used in Example 1 were tested. The fat metabolic activity was measured and compared by quantitative determination of glycerol in the culture medium based on the fact that metabolism of the fat accumulated in adipocytes releases glycerol and free fatty acid to the culture medium.
Mouse 3T3 cells as the preadipocytes were disseminated on a 10 cm-diameter dish such that 1×10^4 cells were on the dish. […] Thereafter, the culture medium was replaced with a 10% FCS-containing DMEM culture medium that contained […] of dexamethasone, 0.5 mM of isobutylmethylxanthine and 10 μg/ml of insulin, and incubation was continued for another 2 days. Subsequently, the culture medium was replaced again with a 10% FCS-containing ordinary DMEM culture medium, and incubation was performed for another week, resulting in differentiation of the preadipocytes into adipocytes. Next, the culture medium was replaced with an ordinary culture medium that contained 250 μM of the carnitine or carnitine derivative of the five substances 1) to 5) used in Example 1, and the culture medium was recovered after 24 hours. The cells were washed with Dulbecco's PBS (−) and were recovered. Cells incubated in the absence of the test substances were used as the control. The glycerol content in the culture medium was quantitatively determined using Glycerol Test E Wako (Wako Pure Chemical Industries, Ltd.).
The fat metabolic activity for mouse 3T3 adipocytes was determined based on the free glycerol content in the same manner as in Example 2, except that the two carnitine and carnitine derivative 1) and 6) used in Example 4 were tested.
The fat metabolic activity for mouse 3T3 adipocytes was determined based on the free glycerol content in the same manner as in Example 2, except that the three carnitine and carnitine derivatives 1), 7) and 8) used in Example 7 were tested.

[1] = test system: skin together with subcutaneous fat tissues; test: Subcutaneous fat breakdown test (rat abdominal skin with subcutaneous fat in Franz diffusion cell); conditions: lower cell PBS (−), 37° C., average of three measurements, control (none) 20
Description: A male Wister rat, 10 weeks old, was shaved on the abdomen, and the skin was removed together with subcutaneous fat tissues and was placed in a Franz diffusion cell. An upper cell on the skin surface was filled with a buffer solution containing the Example 1 test substance, and a lower cell was filled with Dulbecco's PBS (−). The diffusion cell was held at 37° C. and was allowed to stand for 8 or 16 hours. After the lapse of each of the standing times, PBS (−) was withdrawn from the lower cell. The content of free glycerol resulting from the fat breakdown was measured with use of Glycerol Test E Wako. The results are averages of three measurements.
The free glycerol contents were measured in the same manner as in Example 3, except that the two carnitine and carnitine derivative 1) and 6) used in Example 4 were tested. The results are averages of three measurements.
The free glycerol contents were measured in the same manner as in Example 3, except that the three carnitine and carnitine derivatives 1), 7) and 8) used in Example 7 were tested. The results are averages of three measurements.

[2] = test system: human skin tissue three dimensional model (TESTSKIN LSD-d); test: Comparison of percutaneous absorption properties: carnitine content in skin model; conditions: 1% by mass solution, 50 μL on tissue surface for 2 hours; for carnitine content in the skin model, After 2-hour incubation: then 2-hour incubation at 37° C.; for carnitine content in the skin model, After 6-hour incubation: then 6-hour incubation at 37° C.; for carnitine content in the skin model, After 12-hour incubation: then 12-hour incubation at 37° C.
Description: (§1) The test substances were each dissolved in Dulbecco's PBS (−) to give a 1% by mass solution of the test substance. The test substance solutions were placed, each 50 μL, to a tissue surface of human skin tissue three dimensional model (TESTSKIN™ LSD-d, available from TOYOBO CO., LTD.), and were incubated at 37° C. in a 5% CO2 atmosphere for 2 hours. Thereafter the test substance solutions were aspirated out, and the skin models were further incubated at 37° C. in a 5% CO2 atmosphere for 2, 6 or 12 hours. The skin models were sampled after the lapse of each of the incubation times. The skin models sampled at the incubation times were washed with Dulbecco's PBS (−), and the tissue surfaces on which the test substances had been placed were punched out with a punch 6 mm in diameter. The skin models were then homogenated in a HEPES buffer solution (pH: 7.2), and were quantitatively analyzed using a high performance liquid chromatography to determine the carnitine content in the skin model.
(§2) From the analysis results, the carnitine contents in the skin models (unit: nmol/mg skin protein) were obtained for the test substances at each of the incubation times.

[3] = test system: human skin tissue three dimensional model (TESTSKIN LSD-d)
Description: as §1, §2

| Structure (SMILES) | Free glycerol content (% relative to the control) (Mouse 3T3 adipocytes) | Free glycerol, After 8 hours [1] [µmol/mL] | Free glycerol, After 16 hours [1] [µmol/mL] | carnitine content in the skin model, After 2-hour incubation [2] [nmol/mg skin protein] | carnitine content in the skin model, After 6-hour incubation [2] [nmol/mg skin protein] | carnitine content in the skin model, After 12-hour incubation [2] [nmol/mg skin protein] | carnitine content in the skin model, After 2-hour incubation [3] [nmol/mg skin protein] | carnitine content in the skin model, After 6-hour incubation [3] [nmol/mg skin protein] | carnitine content in the skin model, After 12-hour incubation [3] [nmol/mg skin protein] |
| --- | --- | --- | --- | --- | --- | --- | --- | --- | --- |
| C[N+](C)(C)C[C@H](O)CC(=O)[O-] [Test substance 1), L-Carnitine, reference compound] | 120 % relative to the control | 120 | 125 | 12 | 12 | 11 | – | – | – |
| CCCCCC(=O)O[C@H](CC(=O)O)C[N+](C)(C)C.[Cl-] [Test substance 2), Hexanoyl-L-carnitine hydrochloride] | 155 % relative to the control | 116 | 138 | – | – | – | 7 | 14 | 21 |
| CCCCCCCCCCCCCC(=O)O[C@H](CC(=O)O)C[N+](C)(C)C.[Cl-] [Test substance 3), Tetradecanoyl-L-carnitine hydrochloride] | 168 % relative to the control | 112 | 146 | – | – | – | 6 | 12 | 22 |
| CCCCCCCCCCCCCCCC(=O)O[C@H](CC(=O)O)C[N+](C)(C)C.[Cl-] [Test substance 4), Hexadecanoyl-L-carnitine hydrochloride] | 180 % relative to the control | 125 | 170 | – | – | – | 6 | 10 | 23 |
| CCCCCCCCCCCCCCCCCC(=O)O[C@H](CC(=O)O)C[N+](C)(C)C.[Cl-] [Test substance 5), Octadecanoyl-L-carnitine hydrochloride] | 176 % relative to the control | 117 | 158 | – | – | – | 5 | 10 | 25 |
| CCCCCCCCCCCCCCCCOC(=O)C[C@@H](O)C[N+](C)(C)C.[Cl-] [Test substance 6), L-Carnitine hexadecyl ester hydrochloride] | 165 % relative to the control | 110 | 116 | 5 | 11 | 26 | – | – | – |
| CCCCCCCCCCCCCCCC(=O)O[C@H](CC(=O)OC)C[N+](C)(C)C.[Cl-] [Test substance 7), Hexadecanoyl-L-carnitine methyl ester hydrochloride] | 143 % relative to the control | 68 | 145 | 2 | 9 | 19 | – | – | – |
| CCCCCCCCCCCCCCCCOC(=O)C[C@H](C[N+](C)(C)C)OC(=O)CCCCCCCCCCCCCCC.[Cl-] [Test substance 8), Hexadecanoyl-L-carnitine hexadecyl ester hydrochloride] | 148 % relative to the control | 75 | 150 | 2 | 8 | 21 | – | – | – |
